Among the data in ChEMBL document CHEMBL5360650, “Discovery of Small-Molecule TIM-3 Inhibitors for Acute Myeloid Leukemia Using Pharmacophore-Based Virtual Screening” (J Med Chem, 2023) are Kd and inhibition values, retold here.

The structures appear in SMILES notation. The source made the active and inactive calls. The calls are words filed in the database; no cut-off is given here.

For assay [1], the target named is T1, Hepatitis A virus cellular receptor 2 (Homo sapiens, UniProt Q8TDQ0).
T1 sequence (Q8TDQ0 whole entry): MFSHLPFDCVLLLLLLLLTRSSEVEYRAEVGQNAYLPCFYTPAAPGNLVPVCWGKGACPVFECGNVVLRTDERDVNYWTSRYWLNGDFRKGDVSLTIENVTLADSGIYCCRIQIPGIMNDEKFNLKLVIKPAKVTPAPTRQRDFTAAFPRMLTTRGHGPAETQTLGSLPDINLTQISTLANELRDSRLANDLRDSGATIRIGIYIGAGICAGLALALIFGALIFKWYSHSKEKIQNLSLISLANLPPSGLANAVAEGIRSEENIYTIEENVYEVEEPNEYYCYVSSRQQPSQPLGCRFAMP
The experiment in a line: Binding affinity to His-tagged recombinant human TIM3 expressed in HEK293 cells assessed as dissociation constant by sensor chip immobilization based SPR analysis. In general terms: SPR reads the build-up and loss of mass on a sensor chip optically.

The target in assay [2] is Hepatitis A virus cellular receptor 2 (Homo sapiens) (UniProt Q8TDQ0). The experiment in a line: Inhibition of AF647-labeled TIM3 (unknown origin) binding to ptdSer in staurosporine-induced human Jurkat cells at 200 to 1000 nM preincubated with TIM3 followed by cell culture addition by flow cytometry. The class given is cell-based. To be noted: dose 200-1000 nM.
The test system of assay [3] is Kasumi 1. The experiment in a line: Inhibition of cell proliferation of human Kasumi 1 cocultured with 5 uM compound treated human PBMC cells by H3 thymidine uptake. The class given is functional, cell-based.
The target of assay [4] is Hepatitis A virus cellular receptor 2 (Homo sapiens) (UniProt Q8TDQ0). Description: Inhibition of recombinant human Gal-9 binding to biotinylated recombinant human TIM3 at 1 uM by competitive ELISA method. A general note: ELISA stands for enzyme-linked immunosorbent assay.
Assay [5] concerns the target T1, Hepatitis A virus cellular receptor 2. Description: Binding affinity to His-tagged recombinant human TIM3 expressed in HEK293 cells assessed as dissociation constant by MST assay. Type of assay: cell-based.
The target of assay [6] is Hepatitis A virus cellular receptor 2 (Homo sapiens) (UniProt Q8TDQ0). The experiment in a line: Inhibition of recombinant TIM3 (unknown origin) cocultured in PBMC cells assessed as IFN-gamma release at 5 uM by ELISA method. The class given is cell-based.
Assay [7] is filed under the species Homo sapiens. The experiment in a line: Inhibition of polyhis-tagged CEACAM1 binding to recombinant human TIM3 at 200 to 1000 nM preincubated with TIM3 for 1 hr followed by CEACAM1 addition measured after 1 hr by ELISA method. As to conditions: dose 200-1000 nM, time 2.0 hrs.
The test system of assay [8] is THP-1. Description: Inhibition of cell proliferation of human THP-1 NucLight Red cells at 5 uM by incucyte based immune cell killing assay. The class given is functional.

In general, Kd refers to the constant that tells how readily two partners part at equilibrium. In the case of `COc1ccc(-c2noc(-c3cccc(OCC(=O)Nc4ccccc4F)c3)n2)cc1`, in assay [1], the Kd was 27.6 µM. On to `COc1ccc(-c2noc(-c3cccc(NC(=O)COc4ccc(C)cc4)c3)n2)cc1`, for which the Kd in assay [1] is 9.45 µM. As for `COc1ccc(-c2noc(-c3cccc(OCC(=O)Nc4ccncc4)c3)n2)cc1`, the Kd in assay [1] was determined as 2.01 µM. `COc1ccc(-c2noc(-c3cccc(OCC(=O)Nc4ccc(F)cc4)c3)n2)cc1`: in assay [1], the Kd worked out at 20.4 µM. For `COc1ccc(-c2noc(-c3cccc(OCC(=O)Nc4ccc(OC)cc4OC)c3)n2)cc1`, the inhibition result in assay [2], in assay [3], in assay [4], in assay [6], in assay [7] and in assay [8] was “Active” in each case. Further, the values for the Kd in assay [5] and in assay [1] were 0.00058 µM and 0.61 µM, respectively. As for `COc1ccc(-c2noc(-c3cccc(NC(=O)COc4cccc(C)c4)c3)n2)cc1`, the Kd in assay [1] stood at 6.04 µM. Same read-out and setting: to `CCOc1ccc(NC(=O)COc2cccc(-c3noc(-c4ccc(OC)cc4)n3)c2)cc1` belongs 1.28 µM; to `COc1ccc(-c2noc(-c3cccc(OCC(=O)Nc4cccc(OC)c4)c3)n2)cc1`, 1.63 µM; to `O=C(COc1ccccc1)Nc1cccc(-c2nc(-c3ccccc3)no2)c1`, 63.7 µM. `COc1ccc(-c2noc(-c3cccc(OCC(=O)Nc4cc(OC)ccc4OC)c3)n2)cc1`: in assay [1], the Kd was determined as 0.98 µM.

`COc1ccc(-c2noc(-c3cccc(OCC(=O)Nc4cccc(C)c4)c3)n2)cc1`: the Kd in assay [1] came to 3.12 µM. As to `Cc1ccc(OCC(=O)Nc2cccc(-c3nc(-c4ccccc4)no3)c2)cc1`, the Kd in assay [1] was determined as 53.1 µM. Same read-out and setting: to `COc1ccc(-c2noc(-c3ccccc3OCC(=O)Nc3cc(C)cc(C)c3)n2)cc1` belongs 28.9 µM; to `CCOc1ccc(NC(=O)COc2cccc(-c3nc(-c4ccc(OC)cc4)no3)c2)cc1`, 1.35 µM; to `Cc1cccc(-c2noc(-c3cccc(NC(=O)COc4ccccc4)c3)n2)c1`, 46.3 µM. Same read-out and setting: to `COc1ccc(-c2noc(-c3cccc(NC(=O)COc4ccccc4)c3)n2)cc1` belongs 12.7 µM; to `COc1cc(-c2cc(OC)c3c(C)oc(C)c3c(=O)c2)ccc1OC(=O)c1ccc(C)cc1`, 28.9 µM; to `COc1ccc(-c2noc(-c3cccc(NC(=O)COc4ccccc4C)c3)n2)cc1`, 8.32 µM. On the same count and under the same terms, to `COc1ccc(-c2noc(-c3cccc(OCC(=O)Nc4ccc(C)nc4)c3)n2)cc1` belongs 2.47 µM; to `Cc1ccc(-c2noc(-c3cccc(NC(=O)COc4ccccc4)c3)n2)cc1`, 42.4 µM; to `Cc1ccc(Nc2nc(C)cc(Nc3ccc(NC(=O)c4ccc5c(c4)OCO5)cc3)n2)cc1`, 17.3 µM. For `COc1ccc(-c2noc(-c3cccc(OCC(=O)NCc4ccco4)c3)n2)cc1`, the Kd in assay [1] was found to be 11.6 µM.
